Like-named read-outs stand apart in the source and are kept apart here.

For this data set the following is noted: rcm bond, 40.0 °C.

`CCOC(=O)[C@@]12C[C@H]1C=CCCCCC[C@H](NC(=O)OC(C)(C)C)C(=O)N1C[C@@H](O)C[C@H]1C(=O)N2` had a ring closure, yield of all isomers (from C=CCCCCC[C@H](NC(=O)OC(C)(C)C)C(=O)N1C[C@@H](O)C[C@H]1C(=O)N[C@]1(C(=O)OCC)C[C@H]1C=C, Hoveyda 1st generation catalyst, DCM, 14.45 mM, 12.0 h) of 87%.

Turning to `CCOC(=O)[C@@]12C[C@H]1C=CCCCCC[C@H](NC(=O)OC(C)(C)C)C(=O)N1C[C@H](c3nnn(Cc4ccc(-c5ccccc5)cc4)n3)C[C@H]1C(=O)N2`, for the setting “from C=CCCCCC[C@H](NC(=O)OC(C)(C)C)C(=O)N1C[C@H](c2nnn(Cc3ccc(-c4ccccc4)cc3)n2)C[C@H]1C(=O)N[C@]1(C(=O)OCC)C[C@H]1C=C, Hoveyda's catalyst, CH2Cl2, 10.0 mM, 16.0 h”, the ring closure, yield of all isomers amounted to 91.3%. As for `CCOC(=O)[C@@]12C[C@H]1C=CCCCCC[C@H](NC(=O)OC(C)(C)C)C(=O)N1C[C@H](n3nnc(-c4ccccc4)n3)C[C@H]1C(=O)N2`, the ring closure, yield of all isomers (from C=CCCCCC[C@H](NC(=O)OC(C)(C)C)C(=O)N1C[C@H](n2nnc(-c3ccccc3)n2)C[C@H]1C(=O)N[C@]1(C(=O)OCC)C[C@H]1C=C, Hoveyda catalyst, DCM, 2.18 mM, 20.0 h) was found to be 85.5%.

Values taken from patent US7601709.
